Read-outs that look alike come from different tables or passages of the source.
Target: mpox resolvase (Mpr) (Monkeypox virus, UniProt A0A7H0DNC1)
Test: biochemical
Type: biochemical

Chain of mpox resolvase (Mpr) (A0A7H0DNC1 whole entry, looked up): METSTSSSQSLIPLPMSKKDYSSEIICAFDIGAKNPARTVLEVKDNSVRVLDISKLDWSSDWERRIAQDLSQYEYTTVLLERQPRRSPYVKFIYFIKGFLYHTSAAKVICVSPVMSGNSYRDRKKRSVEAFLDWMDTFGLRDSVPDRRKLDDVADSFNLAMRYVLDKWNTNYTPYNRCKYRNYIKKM

| Molecule | IC50 [nM] | also measured |
| --- | --- | --- |
| CCc1c(O)c2cc(-c3cccc(-c4ccccc4)c3)cnc2n(O)c1=O [4b-1, 6-([1,1’-biphenyl]-3-yl)-3-ethyl-1,4-dihydroxy-1,8-naphthyridin-2(1H)-one] | 800 ± 30 |  |
| O=c1c(-c2ccccc2)c(O)c2cc(C3CC3)cnc2n1O [4a-30, 6-cyclopropyl-1,4-dihydroxy-3-phenyl-1,8-naphthyridin-2(1H)-one] | 8000 ± 1000 |  |
| COc1ccc(OC)c(-c2cnc3c(c2)c(O)cc(=O)n3O)c1 [4c-9, 6-(2,5-dimethoxyphenyl)-1,4-dihydroxy-1,8-naphthyridin-2(1H)-one] | 1600 ± 100 |  |
| O=c1c(-c2ccccc2)c(O)c2cc(-c3ccc4c(c3)OCO4)cnc2n1O [4a-19, 6-(benzo[d][1,3]dioxol-5-yl)-1,4-dihydroxy-3-phenyl-1,8-naphthyridin-2(1H)-one] | 1100 ± 100 |  |
| O=c1cc(O)c2cc(-c3ccccc3F)cnc2n1O [4c-6, 6-(2-fluorophenyl)-1,4-dihydroxy-1,8-naphthyridin-2(1H)-one] | 1000 ± 100 |  |
| O=c1cc(O)c2cc(-c3ccc(C(F)(F)F)cc3)cnc2n1O [4c-7, 1,4-dihydroxy-6-(4-(trifluoromethyl)phenyl)-1,8-naphthyridin-2(1H)-one] | 470 ± 50 |  |
| O=c1c(-c2ccccc2)c(O)c2cc(-c3cccnc3)cnc2n1O [4a-25, 1,4-dihydroxy-3-phenyl-6-(pyridin-3-yl)-1,8-naphthyridin-2(1H)-one] | 12000 ± 1000 |  |
| Cc1ccc(-c2cnc3c(c2)c(O)c(-c2ccccc2)c(=O)n3O)cc1 [4a-16, 1,4-dihydroxy-3-phenyl-6-(p-tolyl)-1,8-naphthyridin-2(1H)-one] | 1900 ± 400 |  |
| NS(=O)(=O)c1ccc(-c2cnc3c(c2)c(O)c(-c2ccccc2)c(=O)n3O)cc1 [4a-21, 4-(5,8-dihydroxy-7-oxo-6-phenyl-7,8-dihydro-1,8-naphthyridin-3-yl)benzenesulfonamide] | 1500 ± 100 |  |
| O=c1cc(O)c2cc(-c3cccc(-c4ccccc4)c3)cnc2n1O [4c-1, 6-([1,1’-biphenyl]-3-yl)-1,4-dihydroxy-1,8-naphthyridin-2(1H)-one] | 120 ± 10 |  |
| O=c1cc(O)c2cc(-c3ccccc3)cnc2n1O [4c-5, 1,4-dihydroxy-6-phenyl-1,8-naphthyridin-2(1H)-one] | 1800 ± 10 |  |
| COc1ccc2cc(-c3cnc4c(c3)c(O)cc(=O)n4O)ccc2c1 [4c-4, 1,4-dihydroxy-6-(6-methoxynaphthalen-2-yl)-1,8-naphthyridin-2(1H)-one] | 240 ± 30 |  |
| CCc1c(O)c2cc(-c3cc(OC)ccc3OC)cnc2n(O)c1=O [4b-9, 6-(2,5-dimethoxyphenyl)-3-ethyl-1,4-dihydroxy-1,8-naphthyridin-2(1H)-one] | 1500 ± 100 |  |
| CCc1c(O)c2cc(-c3ccsc3)cnc2n(O)c1=O [4b-11, 3-ethyl-1,4-dihydroxy-6-(thiophen-3-yl)-1,8-naphthyridin-2(1H)-one] | 3900 ± 100 |  |
| CCc1c(O)c2cc(-c3ccc(OC)c(F)c3)cnc2n(O)c1=O [4b-10, 3-ethyl-6-(3-fluoro-4-methoxyphenyl)-1,4-dihydroxy-1,8-naphthyridin-2(1H)-one] | 5000 ± 1000 |  |
| O=c1c(-c2ccccc2)c(O)c2cc(-c3cncnc3)cnc2n1O [4a-26, 1,4-dihydroxy-3-phenyl-6-(pyrimidin-5-yl)-1,8-naphthyridin-2(1H)-one] | 15000 ± 1000 |  |
| N#Cc1ccc(-c2cnc3c(c2)c(O)c(-c2ccccc2)c(=O)n3O)cc1 [4a-20, 4-(5,8-dihydroxy-7-oxo-6-phenyl-7,8-dihydro-1,8-naphthyridin-3-yl) benzonitrile] | 1900 ± 200 |  |
| O=c1cc(O)c2cc(-c3ccc(Oc4ccccc4)cc3)cnc2n1O [4c-3, 1,4-dihydroxy-6-(4-phenoxyphenyl)-1,8-naphthyridin-2(1H)-one] |  | fluorescence quenching in the FRET assay: direct quenching of fluorophore |

| Molecule | IC50 [nM] | also measured |
| --- | --- | --- |
| CC(=O)c1ccc(-c2cnc3c(c2)c(O)c(-c2ccccc2)c(=O)n3O)s1 [4a-28, 6-(5-acetylthiophen-2-yl)-1,4-dihydroxy-3-phenyl-1,8-naphthyridin-2(1H)-one] |  | fluorescence quenching in the FRET assay: fluorescence quenching |
| 3-(5,8-dihydroxy-7-oxo-6-phenyl-7,8-dihydro-1,8-naphthyridin-3-yl) benzamide [4a-12] |  | fluorescence quenching in the FRET assay: fluorescence quenching |
| NC(=O)c1cccc(-c2cnc3c(c2)c(O)cc(=O)n3O)c1 [4c-12, 3-(5,8-dihydroxy-7-oxo-7,8-dihydro-1,8-naphthyridin-3-yl) benzamide] |  | IC50 (read-out: Mpr IC50): 15000 ± 2000 nM |
| O=c1c(-c2ccccc2)c(O)c2cc(-c3ccc(-c4ccccc4)cc3)cnc2n1O [4a-2, 6-([1,1’-biphenyl]-4-yl)-1,4-dihydroxy-3-phenyl-1,8-naphthyridin-2(1H)-one] | 250 ± 10 |  |
| CCc1c(O)c2cc(-c3ccc(C(F)(F)F)cc3)cnc2n(O)c1=O [4b-7, 3-ethyl-1,4-dihydroxy-6-(4-(trifluoromethyl)phenyl)-1,8-naphthyridin-2(1H)-one] | 2500 ± 100 |  |
| CSc1ccc(-c2ccnc3c2c(O)cc(=O)n3O)cc1 [5-4, 1,4-dihydroxy-5-(4-(methylthio)phenyl)-1,8-naphthyridin-2(1H)-one] | 120 ± 10 |  |
| O=c1c(-c2ccccc2)c(O)c2cc(-c3c(F)cc(F)cc3F)cnc2n1O [4a-24, 1,4-dihydroxy-3-phenyl-6-(2,4,6-trifluorophenyl)-1,8-naphthyridin-2(1H)-one] |  | fluorescence quenching in the FRET assay: fluorescence quenching |
| O=c1c(-c2ccccc2)c(O)c2cc(-c3ccsc3)cnc2n1O [4a-11, 1,4-dihydroxy-3-phenyl-6-(thiophen-3-yl)-1,8-naphthyridin-2(1H)-one] | 1300 ± 300 |  |
| CCc1c(O)c2cc(-c3ccccc3F)cnc2n(O)c1=O [4b-6, 3-ethyl-6-(2-fluorophenyl)-1,4-dihydroxy-1,8-naphthyridin-2(1H)-one] | 2100 ± 900 |  |
| O=c1c(-c2ccccc2)c(O)c2cc(-c3ccc(C(F)(F)F)cc3)cnc2n1O [4a-7, 1,4-dihydroxy-3-phenyl-6-(4-(trifluoromethyl)phenyl)-1,8-naphthyridin-2(1H)-one] | 600 ± 100 |  |
| O=c1c(-c2ccccc2)c(O)c2cc(-c3ccco3)cnc2n1O [4a-27, 6-(furan-2-yl)-1,4-dihydroxy-3-phenyl-1,8-naphthyridin-2(1H)-one] | 4000 ± 200 |  |
| O=c1c(-c2ccccc2)c(O)c2cc(-c3ccc(F)cc3F)cnc2n1O [4a-22, 6-(2,4-difluorophenyl)-1,4-dihydroxy-3-phenyl-1,8-naphthyridin-2(1H)-one] |  | fluorescence quenching in the FRET assay: fluorescence quenching |
| Cc1ccc(-c2cnc3c(c2)c(O)cc(=O)n3O)cc1F [4c-13, 6-(3-fluoro-4-methylphenyl)-1,4-dihydroxy-1,8-naphthyridin-2(1H)-one] |  | fluorescence quenching in the FRET assay: direct quenching of fluorophore |
| CCc1c(O)c2cc(-c3ccc(SC)cc3)cnc2n(O)c1=O [4b-8, 3-ethyl-1,4-dihydroxy-6-(4-(methylthio)phenyl)-1,8-naphthyridin-2(1H)-one] | 700 ± 100 |  |
| COc1ccc2cc(-c3cnc4c(c3)c(O)c(-c3ccccc3)c(=O)n4O)ccc2c1 [4a-4, 1,4-dihydroxy-6-(6-methoxynaphthalen-2-yl)-3-phenyl-1,8-naphthyridin-2(1H)-one] | 970 ± 30 |  |
| CSc1cccc(-c2cnc3c(c2)cc(-c2ccccc2)c(=O)n3O)c1 [6-2, 1-hydroxy-6-(3-(methylthio)phenyl)-3-phenyl-1,8-naphthyridin-2(1H)-one] | > 50000 |  |
| O=c1c(-c2ccccc2)c(O)c2cccnc2n1O [4a-31, 1,4-dihydroxy-3-phenyl-1,8-naphthyridin-2(1H)-one] | 17000 ± 1000 |  |

Source: paper PMC12796986 (Journal of medicinal chemistry, 2025)
